Test results from ChEMBL document CHEMBL2434948, “Discovery, synthesis, and characterization of an orally bioavailable, brain penetrant inhibitor of mixed lineage kinase 3” (J Med Chem, 2013).
Calls of active or inactive are those of the source. The rule behind the calls is not given here.

Tests used:
[1] = target: Cyclin-dependent kinase 1 (Homo sapiens, UniProt P06493)
Description: Inhibition of wild type human CDK1 by high throughput ATP-[33P] radiolabeled assay

[2] = target: Mitogen-activated protein kinase kinase kinase 2 (Homo sapiens, UniProt Q9Y2U5)
Description: Inhibition of wild type human MEKK2 by high throughput ATP-[33P] radiolabeled assay

[3] = target: Mitogen-activated protein kinase kinase kinase 11 (Homo sapiens, UniProt Q16584)
Description: Inhibition of MLK3 (unknown origin) after 20 mins by scintillation counting analysis in presence of [33P]-ATP

Cytochrome P450 2C9 = Cytochrome P450 2C9 (Homo sapiens, UniProt P11712)
Description: Inhibition of CYP2C9 in human liver microsomes assessed as inhibition of midazolam metabolism by HPLC/MS analysis

[4] = target: T1, Tyrosine-protein kinase ABL1 (Homo sapiens, UniProt P00519)
Description: Inhibition of wild type human ABL1 by high throughput ATP-[33P] radiolabeled assay

[5] = target: Serine/threonine-protein kinase MARK1 (Homo sapiens) (UniProt Q9P0L2); assay: Inhibition of human wild type MARK1 at 1 uM by qPCR analysis relative to control
[6] = target: Platelet-derived growth factor receptor beta (Homo sapiens) (UniProt P09619); assay: Inhibition of human wild type PDGFRB at 1 uM by qPCR analysis relative to control
[7] = target: Mitogen-activated protein kinase 8 (Homo sapiens, UniProt P45983)
Description: Inhibition of wild type human JNK1 by high throughput [33P]-ATP radiolabeled assay

[8] = target: Mitogen-activated protein kinase 14 (Homo sapiens, UniProt Q16539)
Description: Inhibition of wild type human P38a by high throughput ATP-[33P] radiolabeled assay

[9] = target: Protein delta homolog 1 (Homo sapiens) (UniProt P80370); assay: Inhibition of human wild type DLK at 1 uM by qPCR analysis relative to control
[10] = target: High affinity nerve growth factor receptor (Homo sapiens, UniProt P04629)
Description: Inhibition of wild type human TRKA by high throughput ATP-[33P] radiolabeled assay

[11] = target: Leucine-rich repeat serine/threonine-protein kinase 2 (Homo sapiens, UniProt Q5S007); assay: Inhibition of human wild type LRRK2 at 1 uM by qPCR analysis relative to control
[12] = target: T2, Mitogen-activated protein kinase 1 (Homo sapiens, UniProt P28482); assay: Inhibition of human wild type ERK2 at 1 uM by qPCR analysis
[13] = target: BDNF/NT-3 growth factors receptor (Homo sapiens, UniProt Q16620)
Description: Inhibition of wild type human TRKB by high throughput ATP-[33P] radiolabeled assay

[14] = target: Rho-associated protein kinase 1 (Homo sapiens, UniProt Q13464)
Description: Inhibition of wild type human ROCK1 by high throughput ATP-[33P] radiolabeled assay

in vivo = settings: C57BL/6, mouse, po, 10 mg/kg
[15] = target: Dual specificity protein kinase CLK1 (Homo sapiens) (UniProt P49759); assay: Inhibition of human wild type CLK1 at 1 uM by qPCR analysis relative to control
[16] = target: T3, Receptor-type tyrosine-protein kinase FLT3 (Homo sapiens, UniProt P36888)
T3 sequence (P36888 whole entry): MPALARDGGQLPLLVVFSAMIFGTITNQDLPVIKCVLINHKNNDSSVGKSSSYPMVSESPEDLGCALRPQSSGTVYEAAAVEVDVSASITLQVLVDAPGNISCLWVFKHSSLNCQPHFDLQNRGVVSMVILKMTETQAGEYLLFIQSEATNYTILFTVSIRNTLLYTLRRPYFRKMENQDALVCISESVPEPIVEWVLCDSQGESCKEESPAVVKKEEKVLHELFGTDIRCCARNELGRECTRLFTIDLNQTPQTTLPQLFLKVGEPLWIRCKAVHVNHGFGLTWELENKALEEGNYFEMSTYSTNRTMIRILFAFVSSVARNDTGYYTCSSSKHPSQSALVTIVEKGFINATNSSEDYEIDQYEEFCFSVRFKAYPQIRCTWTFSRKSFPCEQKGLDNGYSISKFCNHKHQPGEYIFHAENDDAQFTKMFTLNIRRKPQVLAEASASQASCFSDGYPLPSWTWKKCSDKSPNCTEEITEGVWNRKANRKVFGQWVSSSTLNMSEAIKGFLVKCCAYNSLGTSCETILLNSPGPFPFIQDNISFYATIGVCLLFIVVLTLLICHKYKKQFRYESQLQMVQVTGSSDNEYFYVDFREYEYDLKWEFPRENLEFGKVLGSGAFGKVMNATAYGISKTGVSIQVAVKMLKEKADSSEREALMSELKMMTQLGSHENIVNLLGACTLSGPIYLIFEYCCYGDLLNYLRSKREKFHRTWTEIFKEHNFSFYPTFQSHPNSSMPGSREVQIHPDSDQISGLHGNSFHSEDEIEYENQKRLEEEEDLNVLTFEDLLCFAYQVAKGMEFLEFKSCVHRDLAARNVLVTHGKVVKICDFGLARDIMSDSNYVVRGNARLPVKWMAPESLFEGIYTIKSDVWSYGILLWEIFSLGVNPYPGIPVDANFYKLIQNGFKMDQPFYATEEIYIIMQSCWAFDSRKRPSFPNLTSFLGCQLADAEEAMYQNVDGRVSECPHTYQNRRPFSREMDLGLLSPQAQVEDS
Description: Inhibition of wild type human FLT3 by high throughput ATP-[33P] radiolabeled assay

[17] = system: Leucine-rich repeat serine/threonine-protein kinase 2 (Homo sapiens), Q5S007 [G2019S]; assay: Inhibition of human LRRK2 G2019S mutant at 1 uM by qPCR analysis relative to control
[18] = target: Tyrosine-protein kinase ZAP-70 (Homo sapiens, UniProt P43403)
Description: Inhibition of wild type human ZAP70 by high throughput ATP-[33P] radiolabeled assay

[19] = target: Serine/threonine-protein kinase Sgk1 (Homo sapiens) (UniProt O00141); assay: Inhibition of human wild type SGK1 at 1 uM by qPCR analysis relative to control
[20] = target: T1, Tyrosine-protein kinase ABL1; assay: Inhibition of human wild type ABL1 at 1 uM by qPCR analysis relative to control
Aurora kinase A = Aurora kinase A (Homo sapiens, UniProt O14965)
Description: Inhibition of wild type human Aurora kinase A by high throughput ATP-[33P] radiolabeled assay

[21] = target: T3, Receptor-type tyrosine-protein kinase FLT3; assay: cell-based
Description: Inhibition of FLT3-L-stimulated wild type full length human FLT3 autophosphorylation expressed in MEF preincubated for 90 mins followed by FLT3-L stimulation measured after 5 mins by ELISA

[22] = target: Receptor-type tyrosine-protein kinase FLT3 (Homo sapiens) (UniProt P36888); assay: Inhibition of human wild type FLT3 at 1 uM by qPCR analysis relative to control
[23] = target: Cyclin-dependent kinase 11B (Homo sapiens) (UniProt P21127); assay: Inhibition of human wild type CDK11 at 1 uM by qPCR analysis relative to control
[24] = target: RAC-gamma serine/threonine-protein kinase (Homo sapiens) (UniProt Q9Y243); assay: Inhibition of human wild type AKT3 at 1 uM by qPCR analysis
[25] = target: T2, Mitogen-activated protein kinase 1
Description: Inhibition of wild type human ERK2 by high throughput ATP-[33P] radiolabeled assay

[26] = target: Tyrosine-protein kinase receptor UFO (Homo sapiens) (UniProt P30530); assay: Inhibition of human wild type AXL at 1 uM by qPCR analysis relative to control
[27] = target: Cyclin-dependent kinase 4 (Homo sapiens) (UniProt P11802); assay: Inhibition of human wild type CDK4 at 1 uM by qPCR analysis relative to control

T1 sequence (P00519 whole entry): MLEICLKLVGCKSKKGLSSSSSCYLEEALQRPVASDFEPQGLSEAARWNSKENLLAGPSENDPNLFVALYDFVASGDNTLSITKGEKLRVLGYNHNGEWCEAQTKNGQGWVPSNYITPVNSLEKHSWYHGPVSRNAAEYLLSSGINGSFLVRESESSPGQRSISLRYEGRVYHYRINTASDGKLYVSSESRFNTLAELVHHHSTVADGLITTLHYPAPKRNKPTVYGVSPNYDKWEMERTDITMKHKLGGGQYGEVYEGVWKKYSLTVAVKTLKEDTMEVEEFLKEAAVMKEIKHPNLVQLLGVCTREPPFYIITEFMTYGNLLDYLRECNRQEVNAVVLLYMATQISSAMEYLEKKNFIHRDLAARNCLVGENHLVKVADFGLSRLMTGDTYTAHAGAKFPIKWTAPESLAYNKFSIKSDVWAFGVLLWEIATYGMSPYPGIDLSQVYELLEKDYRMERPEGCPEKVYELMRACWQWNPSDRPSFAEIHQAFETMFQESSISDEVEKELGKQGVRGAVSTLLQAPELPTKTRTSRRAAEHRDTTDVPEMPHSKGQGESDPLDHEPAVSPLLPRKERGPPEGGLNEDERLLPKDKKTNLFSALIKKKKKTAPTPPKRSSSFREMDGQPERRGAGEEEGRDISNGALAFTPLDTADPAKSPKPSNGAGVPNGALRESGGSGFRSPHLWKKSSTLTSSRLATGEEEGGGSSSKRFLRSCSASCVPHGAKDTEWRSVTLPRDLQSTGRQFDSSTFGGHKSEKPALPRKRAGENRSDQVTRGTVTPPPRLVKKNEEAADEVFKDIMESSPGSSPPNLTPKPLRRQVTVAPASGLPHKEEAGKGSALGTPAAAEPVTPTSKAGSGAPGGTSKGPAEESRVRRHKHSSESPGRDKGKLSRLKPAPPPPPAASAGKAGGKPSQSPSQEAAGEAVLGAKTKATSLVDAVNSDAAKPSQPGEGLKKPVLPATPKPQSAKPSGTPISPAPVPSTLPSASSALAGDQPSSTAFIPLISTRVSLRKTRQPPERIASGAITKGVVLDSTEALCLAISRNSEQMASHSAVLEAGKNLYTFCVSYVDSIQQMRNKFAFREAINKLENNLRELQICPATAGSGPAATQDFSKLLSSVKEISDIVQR
T2 sequence (P28482 whole entry): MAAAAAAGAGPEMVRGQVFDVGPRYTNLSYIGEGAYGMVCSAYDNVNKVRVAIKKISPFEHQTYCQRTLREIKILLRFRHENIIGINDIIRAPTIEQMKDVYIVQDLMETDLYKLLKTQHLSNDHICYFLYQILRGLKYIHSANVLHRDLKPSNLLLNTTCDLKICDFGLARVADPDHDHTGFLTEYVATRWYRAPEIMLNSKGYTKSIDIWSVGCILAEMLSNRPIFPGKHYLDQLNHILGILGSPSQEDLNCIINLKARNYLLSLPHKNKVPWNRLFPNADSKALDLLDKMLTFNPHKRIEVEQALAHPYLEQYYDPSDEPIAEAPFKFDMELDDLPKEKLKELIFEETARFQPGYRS
Tyrosine-protein kinase receptor UFO (Homo sapiens), sequence (P30530 whole entry): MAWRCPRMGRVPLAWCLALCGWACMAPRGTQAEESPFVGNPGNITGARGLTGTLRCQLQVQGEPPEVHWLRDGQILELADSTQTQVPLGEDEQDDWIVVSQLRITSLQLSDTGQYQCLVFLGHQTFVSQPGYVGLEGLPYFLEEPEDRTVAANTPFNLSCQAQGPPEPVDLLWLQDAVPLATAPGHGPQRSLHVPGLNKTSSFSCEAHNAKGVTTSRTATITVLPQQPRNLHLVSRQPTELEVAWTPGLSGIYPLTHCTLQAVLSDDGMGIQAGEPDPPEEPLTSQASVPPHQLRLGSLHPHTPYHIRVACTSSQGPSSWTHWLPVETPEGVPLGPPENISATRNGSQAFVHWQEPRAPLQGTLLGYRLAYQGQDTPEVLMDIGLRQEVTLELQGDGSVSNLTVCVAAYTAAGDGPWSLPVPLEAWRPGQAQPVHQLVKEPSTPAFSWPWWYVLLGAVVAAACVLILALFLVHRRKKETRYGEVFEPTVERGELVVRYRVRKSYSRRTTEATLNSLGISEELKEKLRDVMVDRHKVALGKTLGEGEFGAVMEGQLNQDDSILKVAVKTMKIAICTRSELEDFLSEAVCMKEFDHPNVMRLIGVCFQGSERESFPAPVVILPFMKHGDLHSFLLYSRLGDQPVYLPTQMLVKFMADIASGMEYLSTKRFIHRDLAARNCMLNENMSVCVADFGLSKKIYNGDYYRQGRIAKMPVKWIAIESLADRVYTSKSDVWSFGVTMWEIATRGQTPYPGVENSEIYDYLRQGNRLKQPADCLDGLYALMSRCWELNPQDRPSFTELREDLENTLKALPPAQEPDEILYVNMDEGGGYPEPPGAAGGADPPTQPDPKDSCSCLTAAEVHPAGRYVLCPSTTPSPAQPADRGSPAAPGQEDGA
Platelet-derived growth factor receptor beta (Homo sapiens), sequence (P09619 whole entry): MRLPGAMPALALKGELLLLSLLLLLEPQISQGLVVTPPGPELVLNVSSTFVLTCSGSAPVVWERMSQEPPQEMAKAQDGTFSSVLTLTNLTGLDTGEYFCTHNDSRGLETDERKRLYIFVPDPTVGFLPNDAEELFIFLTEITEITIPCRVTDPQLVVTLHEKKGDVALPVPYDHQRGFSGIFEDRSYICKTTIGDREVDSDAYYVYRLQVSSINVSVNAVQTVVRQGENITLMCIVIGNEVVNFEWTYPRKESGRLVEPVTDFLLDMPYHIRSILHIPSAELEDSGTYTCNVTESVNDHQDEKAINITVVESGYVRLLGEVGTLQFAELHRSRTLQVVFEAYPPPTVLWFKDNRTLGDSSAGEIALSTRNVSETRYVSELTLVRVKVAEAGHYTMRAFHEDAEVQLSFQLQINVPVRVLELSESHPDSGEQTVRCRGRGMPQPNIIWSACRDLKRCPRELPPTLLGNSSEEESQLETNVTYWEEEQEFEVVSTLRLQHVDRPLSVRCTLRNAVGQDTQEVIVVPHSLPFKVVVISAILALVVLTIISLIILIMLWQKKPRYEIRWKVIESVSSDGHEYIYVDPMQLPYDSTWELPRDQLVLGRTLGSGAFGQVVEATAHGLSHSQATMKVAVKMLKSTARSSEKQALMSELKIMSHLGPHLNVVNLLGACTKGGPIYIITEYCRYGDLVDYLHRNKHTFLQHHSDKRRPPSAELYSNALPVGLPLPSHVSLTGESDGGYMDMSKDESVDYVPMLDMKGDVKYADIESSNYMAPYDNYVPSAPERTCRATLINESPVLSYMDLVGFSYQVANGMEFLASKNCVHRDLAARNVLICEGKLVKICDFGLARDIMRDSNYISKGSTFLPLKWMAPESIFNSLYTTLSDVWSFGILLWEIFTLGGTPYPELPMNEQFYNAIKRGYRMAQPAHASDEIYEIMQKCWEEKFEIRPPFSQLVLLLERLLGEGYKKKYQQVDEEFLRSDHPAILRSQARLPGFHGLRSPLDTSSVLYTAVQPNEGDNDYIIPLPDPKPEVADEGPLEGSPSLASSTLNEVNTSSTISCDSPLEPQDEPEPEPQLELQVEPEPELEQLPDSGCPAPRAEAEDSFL
Serine/threonine-protein kinase MARK1 (Homo sapiens), sequence (Q9P0L2 whole entry, looked up): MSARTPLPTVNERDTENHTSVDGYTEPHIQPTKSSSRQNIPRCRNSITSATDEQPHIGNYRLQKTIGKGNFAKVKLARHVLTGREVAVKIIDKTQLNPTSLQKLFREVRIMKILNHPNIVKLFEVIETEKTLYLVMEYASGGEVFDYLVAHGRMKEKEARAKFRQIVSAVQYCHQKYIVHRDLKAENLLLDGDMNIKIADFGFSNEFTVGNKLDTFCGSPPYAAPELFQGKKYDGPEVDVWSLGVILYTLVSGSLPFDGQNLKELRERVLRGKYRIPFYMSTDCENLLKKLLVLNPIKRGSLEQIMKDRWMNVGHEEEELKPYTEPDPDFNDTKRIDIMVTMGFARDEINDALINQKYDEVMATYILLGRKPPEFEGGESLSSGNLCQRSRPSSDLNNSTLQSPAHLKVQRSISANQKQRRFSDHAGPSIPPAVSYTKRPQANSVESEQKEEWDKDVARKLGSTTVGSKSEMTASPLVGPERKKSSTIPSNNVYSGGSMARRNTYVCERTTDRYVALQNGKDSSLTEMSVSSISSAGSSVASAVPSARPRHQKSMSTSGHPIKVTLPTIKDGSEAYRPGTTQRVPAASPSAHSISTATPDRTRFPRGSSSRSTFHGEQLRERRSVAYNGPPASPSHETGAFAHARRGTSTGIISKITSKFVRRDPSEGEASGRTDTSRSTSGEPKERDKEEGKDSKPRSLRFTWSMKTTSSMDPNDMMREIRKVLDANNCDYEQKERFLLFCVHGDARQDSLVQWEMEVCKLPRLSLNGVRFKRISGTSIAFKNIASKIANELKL
Serine/threonine-protein kinase Sgk1 (Homo sapiens), sequence (O00141 whole entry): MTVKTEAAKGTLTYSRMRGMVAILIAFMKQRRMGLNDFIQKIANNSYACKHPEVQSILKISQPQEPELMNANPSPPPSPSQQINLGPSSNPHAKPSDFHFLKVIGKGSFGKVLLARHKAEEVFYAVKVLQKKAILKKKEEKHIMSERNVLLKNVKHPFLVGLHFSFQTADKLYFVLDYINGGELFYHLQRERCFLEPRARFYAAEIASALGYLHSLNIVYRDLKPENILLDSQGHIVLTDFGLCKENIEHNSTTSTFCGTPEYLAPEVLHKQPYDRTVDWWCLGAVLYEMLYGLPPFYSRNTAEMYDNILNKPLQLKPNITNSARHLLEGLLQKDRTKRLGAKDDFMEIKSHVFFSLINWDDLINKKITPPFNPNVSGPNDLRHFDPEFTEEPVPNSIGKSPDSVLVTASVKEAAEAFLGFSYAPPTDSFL
Cyclin-dependent kinase 1, sequence (P06493 whole entry): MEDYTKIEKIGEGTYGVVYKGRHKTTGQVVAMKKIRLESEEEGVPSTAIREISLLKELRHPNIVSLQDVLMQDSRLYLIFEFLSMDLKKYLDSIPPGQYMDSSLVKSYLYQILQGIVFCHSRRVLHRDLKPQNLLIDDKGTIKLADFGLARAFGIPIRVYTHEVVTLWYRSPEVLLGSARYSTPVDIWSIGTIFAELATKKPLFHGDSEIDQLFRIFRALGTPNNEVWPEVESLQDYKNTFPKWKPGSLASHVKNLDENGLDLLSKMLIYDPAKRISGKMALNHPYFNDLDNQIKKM

CN1CCN(Cc2ccc(-c3cnc4[nH]cc(-c5ccc6[nH]ccc6c5)c4c3)cc2)CC1
IC50 [1]: 1.13 µM | IC50 [2]: 0.661 µM | IC50 [3]: 0.014 µM | IC50 (Cytochrome P450 2C9): > 30 µM | IC50 [4]: 0.0068 µM | inhibition [5]: 92% | inhibition [6]: > 90% | IC50 [7]: 3.2 µM | IC50 [8]: 12 µM | inhibition [9]: 88% | IC50 [10]: 0.085 µM | inhibition [11]: 92% | inhibition [12]: inactive | IC50 [13]: 0.217 µM | IC50 [14]: 1.03 µM | Tmax (in vivo): 4 h | inhibition [15]: > 90% | IC50 [16]: 0.004 µM | inhibition [17]: 96% | IC50 [18]: 5.05 µM | inhibition [19]: 70% | inhibition [20]: > 90% | IC50 (Aurora kinase A): 0.108 µM | IC50 [21]: 0.56 µM | inhibition [22]: > 90% | inhibition [23]: > 90% | inhibition [24]: inactive | IC50 [25]: 6.29 µM | inhibition [26]: > 90% | inhibition [27]: > 90%
